Assay results as given in paper PMC9974934, “Bifunctional small molecules targeting PD-L1/CXCL12 as dual immunotherapy for cancer treatment” (Signal Transduction and Targeted Therapy, 2023).
Where two headings read alike, the source gives them in different places.

Columns and labels:
[1] = molecular target: T1, PD-1/PD-L1 interaction (Homo sapiens, UniProt Q9NZQ7); assay: PD-1/PD-L1 HTRF assay; format: biochemical; settings: read-out: IC50, anti-PD-1/PD-L1 potency
T1 construct: purchased Cisbio 64ICP01PEG&64ICP01PEH

[2] = tested on: CXCL12-mediated cell migration, THP-1 cells; assay: Transwell chemotaxis test in THP-1 cells; format: cell-based
[3] = tested on: B16-F10 melanoma tumors; assay: In vivo efficacy in B16-F10 melanoma model; settings: mouse B16-F10 model
Excerpt: (§1) In vivo efficacy study in a melanoma model and CT26 tumor model. Protocols for animal experiments (B16-F10 and CT-26 tumor model) were approved by the NIACEC (National Institutional Animal Care & Ethical Committee) at SMU (Southern Medical University). C57BL/6 male mice (6-8 weeks old) were purchased from Liaoning Changsheng Biosciences. Briefly, A total of 2×10^5 B16-F10 melanoma cells or CT26 cells (1×10^6) were inoculated into mouse (in the right flank) according to protocols of tumor transplantation studies in mice. […] Tumor volume was measured with a traceable electronic digital caliper (every 2 days).

[4] = H&E staining of mice organs; format: in vivo, mouse
[5] = Creatine kinase isoenzyme assay; format: in vivo, mouse; settings: mice
[6] = molecular target: T2, murine CXCL12 (Mus musculus, UniProt P40224); assay: SPR binding to mCXCL12
T2 construct: purchased Sino Biological Biotics Inc 50025-MNAE-2
Protocol: (§2) SPR, ITC, CD assay. […] SPRi assay was carried out using PlexAray HT.

[7] = tested on: CXCL12-mediated Ca2+ cellular responses in THP-1 cells; assay: Calcium flux assay in THP-1 cells; format: cell-based; settings: spectrofluorometry
Protocol: Calcium flux assays. THP-1 cells were incubated with Fluo-4AM (Invitrogen, catalog number: F14201) calcium-dependent fluorophore for 0.5 h, washed and resuspended. […] Ca^2+ flux was measured (Ex = 488 nm; Em = 520 nm).

[8] = Pharmacokinetic study in male SD rats; format: in vivo, rat; settings: for MRT last: read-out: MRT(0–t); for MRT inf: read-out: MRT(0–∞)
Protocol: Pharmacokinetic Study in Male SD Rats. Male SD rats (300–360 g) were purchased from Liaoning Changsheng Biotechnology Co., Ltd. Diet. […] The mobile phase consisted of a mixture of solvent A (acetonitrile) and solvent B (formic acid/ ultrapure water, 1:1000, v/v). The linear gradient program for the mobile phase was set as follows: 0 min 10% A; 0.5 min 30% A; 1 min 95% A; 2 min 95% A; 2.3 min 10% A. The flow rate of the mobile phase was 0.4 mL/min, and the injection volume was 2 μL. The XEVO TQD triple quadrupole mass spectrometer was equipped with an electrospray ionization (ESI) source; multiple reaction monitoring (MRM) mode was selected for quantitation. The Mass Lynx 4.1 software (Waters Corp.) was used for data acquisition. Mass spectral data were obtained in positive electrospray mode (ESI+) in MRM mode.

[9] = Serum biochemistry for liver and kidney function; format: in vivo, mouse; settings: mice
[10] = tested on: CT-26 colon syngeneic tumor; assay: In vivo efficacy in CT-26 colon syngeneic tumor model; design: species or system mouse; settings: 75 mg/kg for 17 days
Excerpt: as §1
Figure. […] Then, sacrificed and tumors weights and volumes were measured. (A) Images of tumors and weight of tumors; (B) changes of body weights of mice during treatment; (C) Individual tumor growth curves over time (D) changes of tumor volume during treatment. *P < 0.05, **P < 0.01, and ****P < 0.0001 (n=3).

[11] = tested on: HepG2 cells co-cultured with Jurkat T cells; assay: HepG2 cell mortality in Jurkat T & HepG2 co-culture model; format: cell-based; settings: CCK-8
Protocol: Assessment of HepG2 cell mortality rate (Cellular). Firstly, HepG2 cells were stimulated with human IFN-γ (Peprotech, catalog number: 300-02) to express hPD-L1 stably. Jurkat T cells were stimulated with PHA-P (Invivogen, catalog number: inh-phap). Then, HepG2 (5×10^4) and Jurkat T cells (5×10^4) were added to the co-cultured model. […] Finally, the Jurkat T cells were completely removed by washing the supernatant (200 μL) with cold PBS for 4 times. The mortality rate of HepG2 cells was determined by CCK-8 assay (Dojindo, CCK8, 500 test).

[12] = molecular target: T3, human CXCL12 (Homo sapiens, UniProt P48061); assay: SPR binding to hCXCL12
T3 construct: purchased Sino Biological Biotics Inc 13511-HNCE-2
Protocol: as §2

[13] = rat, plasma, iv, I.V. 1 mg/kg, mean ± SD
[14] = rat, plasma, po, P.O. 18 mg/kg, mean ± SD

T1 sequence (Q9NZQ7 19-238 limits assumed): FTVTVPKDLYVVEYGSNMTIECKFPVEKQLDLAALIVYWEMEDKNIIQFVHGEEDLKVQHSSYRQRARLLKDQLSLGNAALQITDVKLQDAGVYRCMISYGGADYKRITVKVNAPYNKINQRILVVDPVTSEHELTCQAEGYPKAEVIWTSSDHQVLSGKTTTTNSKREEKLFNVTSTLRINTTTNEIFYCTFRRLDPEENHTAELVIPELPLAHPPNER
T3 sequence (P48061 22-93): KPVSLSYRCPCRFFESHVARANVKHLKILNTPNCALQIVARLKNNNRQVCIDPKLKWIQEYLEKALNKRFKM
T2 sequence (P40224 22-93): as the sequence (P48061 22-93) above, with V18I, F70L counted along it

## COc1ccc(C(=O)/C=C/c2ccc(OCc3ccc(CNC(=O)CCCCNC(=O)C4CCCCN4Cc4ccc(OCc5cccc(-c6ccccc6)c5C)c(Br)c4)cc3)c(OC)c2)cc1 (centres unmarked) [CP1]
[1]
  IC50: > 1000 nM

## COc1ccc(C(=O)/C=C/c2ccc(OCc3ccc(CNC(=O)C4CCCCN4Cc4ccc(OCc5cccc(-c6ccccc6)c5C)c(Br)c4)cc3)c(OC)c2)cc1 (centres unmarked) [CP2]
[1]
  IC50: > 1000 nM
other
  melting point: 124.8 to 125.9 °C

## COc1ccc(C(=O)/C=C/c2ccc(OCc3ccc(CNC(=O)C4CCN(C(=O)C5CCCCN5Cc5ccc(OCc6cccc(-c7ccccc7)c6C)c(Br)c5)CC4)cc3)c(OC)c2)cc1 (centres unmarked) [CP3]
[1]
  IC50: > 1000 nM

## COc1ccc(C(=O)/C=C/c2ccc(OCc3ccc(CNC(=O)CCCNC(=O)C4CCCCN4Cc4ccc(OCc5cccc(-c6ccccc6)c5C)c(Br)c4)cc3)c(OC)c2)cc1 (centres unmarked) [CP4]
[1]
  IC50: > 1000 nM

## COc1ccc(C(=O)/C=C/c2ccc(OCc3ccc(CNC(=O)CCNC(=O)C4CCCCN4Cc4ccc(OCc5cccc(-c6ccccc6)c5C)c(Br)c4)cc3)c(OC)c2)cc1 (centres unmarked) [CP5]
[1]
  IC50: > 1000 nM

## COc1ccc(C(=O)/C=C/c2ccc(OCc3ccc(CNC(=O)C4CCCCN4Cc4cc(Cl)c(OCc5cccc(-c6ccccc6)c5C)cc4OCc4ccc(OC(F)(F)F)cc4)cc3)c(OC)c2)cc1 (centres unmarked) [CP6]
[1]
  IC50: > 1000 nM

## COc1ccc(C(=O)/C=C/c2ccc(OCc3ccc(CNC(=O)C4CCN(C(=O)C5CCCCN5Cc5cc(Cl)c(OCc6cccc(-c7ccccc7)c6C)cc5OCc5ccc(OC(F)(F)F)cc5)CC4)cc3)c(OC)c2)cc1 (centres unmarked) [CP7]
[1]
  IC50: > 1000 nM

## COc1ccc(C(=O)/C=C/c2ccc(OCc3ccc(CNC(=O)CCCNC(=O)C4CCCCN4Cc4cc(Cl)c(OCc5cccc(-c6ccccc6)c5C)cc4OCc4ccc(OC(F)(F)F)cc4)cc3)c(OC)c2)cc1 (centres unmarked) [CP8]
[1]
  IC50: > 1000 nM

## COc1ccc(C(=O)/C=C/c2ccc(OCc3ccc(CNC(=O)CCCNC(=O)C(C)(C)NCc4cc(Cl)c(OCc5cccc(-c6ccccc6)c5C)cc4OCc4cccc(C#N)c4)cc3)c(OC)c2)cc1 [CP9]
[1]
  IC50: 101 nM

## COc1ccc(C(=O)/C=C/c2ccc(OCc3ccc(CNC(=O)C(C)(C)NCc4cc(Cl)c(OCc5cccc(-c6ccccc6)c5C)cc4OCc4cccc(C#N)c4)cc3)c(OC)c2)cc1 [CP10]
[1]
  IC50: > 1000 nM

## COc1ccc(C(=O)/C=C/c2ccc(OCc3ccc(CNC(=O)CCNC(=O)C(C)(C)NCc4cc(Cl)c(OCc5cccc(-c6ccccc6)c5C)cc4OCc4cccc(C#N)c4)cc3)c(OC)c2)cc1 [CP11]
[1]
  IC50: 870 nM

## COc1ccc(C(=O)/C=C/c2ccc(OCc3ccc(CNC(=O)CCCCNC(=O)C(C)(C)NCc4cc(Cl)c(OCc5cccc(-c6ccccc6)c5C)cc4OCc4cccc(C#N)c4)cc3)c(OC)c2)cc1 [CP12]
[1]
  IC50: > 1000 nM

## CCOC(=O)COc1cc(OCc2cccc(-c3ccccc3)c2C)c(Cl)cc1CN1CCCCC1C(=O)NCCC(=O)NCc1ccc(COc2ccc(/C=C/C(=O)c3ccc(OC)cc3)cc2OC)cc1 (centres unmarked) [CP13]
[1]
  IC50: > 1000 nM

## CCOC(=O)COc1cc(OCc2cccc(-c3ccccc3)c2C)c(Cl)cc1CN1CCCCC1C(=O)NCc1ccc(COc2ccc(/C=C/C(=O)c3ccc(OC)cc3)cc2OC)cc1 (centres unmarked) [CP14]
[1]
  IC50: > 1000 nM

## CCOC(=O)COc1cc(OCc2cccc(-c3ccccc3)c2C)c(Cl)cc1CN1CCCCC1C(=O)N1CCC(C(=O)NCc2ccc(COc3ccc(/C=C/C(=O)c4ccc(OC)cc4)cc3OC)cc2)CC1 (centres unmarked) [CP15]
[1]
  IC50: > 1000 nM

## CCOC(=O)COc1cc(OCc2cccc(-c3ccccc3)c2C)c(Cl)cc1CN1CCCCC1C(=O)NCCCC(=O)NCc1ccc(COc2ccc(/C=C/C(=O)c3ccc(OC)cc3)cc2OC)cc1 (centres unmarked) [CP16]
[1]
  IC50: > 1000 nM

## COc1ccc(C(=O)/C=C/c2ccc(OCc3ccc(CNC(=O)C4CCCCN4Cc4cc(Cl)c(OCc5cccc(-c6ccccc6)c5C)cc4OCc4cccc(C#N)c4)cc3)c(OC)c2)cc1 (centres unmarked) [CP17]
[1]
  IC50: 126 nM
other
  melting point: 128.1 to 128.9 °C

## COc1ccc(C(=O)/C=C/c2ccc(OCc3ccc(CNC(=O)CCCNC(=O)C4CCCCN4Cc4cc(Cl)c(OCc5cccc(-c6ccccc6)c5C)cc4OCc4cccc(C#N)c4)cc3)c(OC)c2)cc1 (centres unmarked) [CP18]
[1]
  IC50: 107 nM
other
  melting point: 120.1 to 120.9 °C

## COc1ccc(C(=O)/C=C/c2ccc(OCc3ccc(CNC(=O)CCCCNC(=O)C4CCCCN4Cc4cc(Cl)c(OCc5cccc(-c6ccccc6)c5C)cc4OCc4cccc(C#N)c4)cc3)c(OC)c2)cc1 (centres unmarked) [CP19]
[1]
  IC50: > 1000 nM

## COc1ccc(C(=O)/C=C/c2ccc(OCc3ccc(CNC(=O)CCNC(=O)C4CCCCN4Cc4cc(Cl)c(OCc5cccc(-c6ccccc6)c5C)cc4OCc4cccc(C#N)c4)cc3)c(OC)c2)cc1 (centres unmarked) [CP20]
[1]
  IC50: 88.5 nM

## COc1ccc(C(=O)/C=C/c2ccc(OCc3ccc(CNC(=O)C4CCN(C(=O)C5CCCCN5Cc5cc(Cl)c(OCc6cccc(-c7ccccc7)c6C)cc5OCc5cccc(C#N)c5)CC4)cc3)c(OC)c2)cc1 (centres unmarked) [CP21]
[2]
  CXCL12-mediated cell migration: dose-dependently inhibited
[3]
  Body weights of mice during treatment: did not change markedly
[3]; 75 and 125 mg/kg
  Tumor weights and volumes: dose-dependently decreased
[3]; oral 125 mg/kg
  Tumor growth inhibition (TGI): 58.5%
[4]
  Morphological aberration of organs (H&E staining): no apparent morphological aberration
[5]
  Cardiotoxicity (creatine kinase isoenzyme assay): did not cause cardiotoxicity
[6]
  Kd: 76.5 nM
[7]
  CXCL12-induced calcium responses: dose-dependently inhibited
[8]; P.O. 18 mg/kg, mean ± SD
  CL: 2347 ± 83.3 mL/min/kg
  Vz: 467.4 ± 184.8 L/kg
[8]; rat, plasma, iv, I.V. 1 mg/kg
  Tmax: 0.083 h
[8]; [13]
  AUC(0-inf): 2138 ± 18.3 ng·h/mL
  AUC(0-t): 2032 ± 11.4 ng·h/mL
  Cmax: 326 ± 58.1 ng/mL
  clearance: 8.33 mL/min/kg
  half-life: 12.4 ± 0.3 h
  MRT last: 11.3 ± 0.4 h
  MRT inf: 14 ± 0.5 h
[8]; rat, plasma, iv, I.V. 1 mg/kg, mean ± SD, read-out: Vz
  Vd: 8.4 ± 0.2 L/kg
[8]; [14]
  AUC(0-inf): 128 ± 4.6 ng·h/mL
  AUC(0-t): 128 ± 4.8 ng·h/mL
  Cmax: 20.5 ± 3.1 ng/mL
  Tmax: 6.3 ± 0.8 h
  half-life: 2.2 ± 0.8 h
  MRT last: 5.9 ± 0.2 h
  MRT inf: 6 ± 0.2 h
[9]
  Hepatotoxicity and nephrotoxicity (serum biochemistry): did not induce hepatotoxicity and nephrotoxicity
[10]
  In vivo antitumor efficacy: similarly high in vivo antitumor efficacy
[11]
  Death of HepG2 cells: dose-dependently promoted
[12]
  Kd: 160 nM
